Experimental data reported in patent publication US7754683B2, “Bioactive peptide of bone morphogenetic protein-2” (priority 2005, dated 2010).
Square brackets hold non-standard residues; d marks the D form. Ends that are not written are not given here. pS = N[C@@H](COP(=O)(O)O)C(=O)O

System: Wistar rats
Assay: Experimental research on animal ectopic osteogenesis (peptide/collagen sponge implantation)
Type: in vivo
Settings: for ectopic osteogenesis by CT scan imaging: 0.4 mg peptide on collagen sponge implanted in sacral spine muscles, CT at 3, 6, 8 weeks; for ectopic osteogenesis ability (overall result) / formation of new bone by histological examination (HE staining): 0.4 mg peptide/collagen sponge; for formation of new bone by histological examination (HE staining): eighth week
Procedure: The scaffold material is collagen sponge, the size of which is 5×5×5 mm^3. Three bone morphogenetic protein-2 active peptides are dissolved into saline solution, and then dropped on the collagen sponge in accordance with the 0.4 mg dose. Meanwhile, equivalent saline solution is dropped on the control pure collagen sponge, and freeze-dried for reserve after complete absorption.
(2) groups: 36 Wistar rats are randomly divided into three experimental groups, namely 0.4 mg bone morphogenetic protein-2 active peptide 1/collagen sponge group, 0.4 mg bone morphogenetic protein-2 active peptide 2/[…] group and 0.4 mg bone morphogenetic protein-2 active peptide 3/collagen sponge group, and the control group is using pure collagen sponge.
The anesthesia of rats is achieved by ketamine intraperitoneal injection. For two experimental groups, 0.4 mg bone morphogenetic protein-2 active peptide 1/collagen sponge and 0.4 mg bone morphogenetic protein-2 active peptide 2/collagen sponge are respectively implanted with 1 cm incision in the sacral spine muscles on the back. For […], pure collagen sponge of the same size is implanted into the gaps along one side of sacral spine muscles. CT radiography inspection of three rats groups is done after implantation in the 3, 6, 8 weeks, and then four rats of each group are killed at each time point. Local tissues of implant materials are sampled, after fixation by formaldehyde and paraffin-embedded sections, and histological observation is done with HE staining.

| Substance | ectopic osteogenesis by CT scan imaging | ectopic osteogenesis ability (overall result) | formation of new bone by histological examination (HE staining) |
| --- | --- | --- | --- |
| C16H31O—NH—CCCCGGGS^[PO4]KIPKASSVPTELSAISTLYL | significant ectopic osteogenesis | good ectopic osteogenesis ability | significant formation of new bone |
| CCCCDDDS^[PO4]KIPKASSVPTELSAISTLYL (CCCCDDD[pS]KIPKASSVPTELSAISTLYL; cysteine pairing not given here) | significant ectopic osteogenesis | good ectopic osteogenesis ability | significant formation of new bone |
| S^[PO4]KIPKASSVPTELSAISTLYLDDD ([pS]KIPKASSVPTELSAISTLYLDDD) | significant ectopic osteogenesis | good ectopic osteogenesis ability | significant formation of new bone |
